Experiments:
ISC-enriched organoids [1] = experiment: Primary screen, 384-well 2.5-D organoid differentiation (ENR+CD, 6 days): carbachol-induced lysozyme secretion (LYZ.S); format: cell-based, murine; conditions: for Dose.FC.LYZ.S: FC vs plate median; for Z.LYZ.S: standard z score; for SSMD.LYZ.S: strictly standardized mean difference
Text: (§1) High-throughput screening.

ISC-enriched organoids [2] = experiment: Primary screen, 384-well 2.5-D organoid differentiation (ENR+CD, 6 days): basal lysozyme secretion (LYZ.NS); format: cell-based, murine; conditions: for Dose.FC.LYZ.NS: FC vs plate median; for SSMD.LYZ.NS: strictly standardized mean difference
Text: as §1

ISC-enriched organoids [3] = experiment: Primary screen, 384-well 2.5-D organoid differentiation (ENR+CD, 6 days, Target Selective Inhibitor Library, vs whole-plate median): ATP (CellTiter-Glo 3D, CTG); conditions: for Dose.FC.CTG: FC vs plate median; for SSMD.CTG: strictly standardized mean difference
[4] = Dose 0.08 uM, standard z score of FC
[5] = Dose 0.40 uM, standard z score of FC
[6] = Dose 2.00 uM, standard z score of FC
[7] = Dose 10.00 uM, standard z score of FC
[8] = primary screen, 1st of the 4 dose lines of the treatment (dose not given)
[9] = primary screen, 2nd of the 4 dose lines of the treatment (dose not given)
[10] = primary screen, 3rd of the 4 dose lines of the treatment (dose not given)
[11] = primary screen, 4th of the 4 dose lines of the treatment (dose not given)
[12] = Dose 0.08 uM, primary screen, standard z score
[13] = Dose 0.40 uM, primary screen, standard z score
[14] = Dose 2.00 uM, primary screen, standard z score
[15] = Dose 10.00 uM, primary screen, standard z score

Structure (SMILES): CS(=O)(=O)c1cccc(CNc2nc(Nc3ccc4c(c3)CCC(=O)N4)ncc2C(F)(F)F)c1 [PF-573228]
- Dose.FC.LYZ.S (ISC-enriched organoids [1]; Dose 0.08 uM, primary screen): 0.114 log 2 fold change
- Dose.FC.LYZ.S (ISC-enriched organoids [1]; Dose 0.40 uM, primary screen): 0.002 log 2 fold change
- Dose.FC.LYZ.S (ISC-enriched organoids [1]; Dose 2.00 uM, primary screen): −0.174 log 2 fold change
- Dose.FC.LYZ.S (ISC-enriched organoids [1]; Dose 10.00 uM, primary screen): −0.305 log 2 fold change
- Dose.FC.LYZ.NS (ISC-enriched organoids [2]; Dose 0.08 uM, primary screen): 0.010 log 2 fold change
- Z.LYZ.NS (ISC-enriched organoids [2]; [4]): 0.089
- Dose.FC.LYZ.NS (ISC-enriched organoids [2]; Dose 0.40 uM, primary screen): −0.046 log 2 fold change
- Z.LYZ.NS (ISC-enriched organoids [2]; [5]): −0.401
- Dose.FC.LYZ.NS (ISC-enriched organoids [2]; Dose 2.00 uM, primary screen): −0.058 log 2 fold change
- Z.LYZ.NS (ISC-enriched organoids [2]; [6]): −0.502
- Dose.FC.LYZ.NS (ISC-enriched organoids [2]; Dose 10.00 uM, primary screen): −0.250 log 2 fold change
- Z.LYZ.NS (ISC-enriched organoids [2]; [7]): −2.180
- Dose.FC.CTG (ISC-enriched organoids [3]; Dose 0.08 uM, primary screen): 0.077 log 2 fold change
- Z.CTG (ISC-enriched organoids [3]; [4]): 0.183
- Dose.FC.CTG (ISC-enriched organoids [3]; Dose 0.40 uM, primary screen): −0.054 log 2 fold change
- Z.CTG (ISC-enriched organoids [3]; [5]): −0.129
- Dose.FC.CTG (ISC-enriched organoids [3]; Dose 2.00 uM, primary screen): −0.434 log 2 fold change
- Z.CTG (ISC-enriched organoids [3]; [6]): −1.037
- Dose.FC.CTG (ISC-enriched organoids [3]; Dose 10.00 uM, primary screen): −0.497 log 2 fold change
- Z.CTG (ISC-enriched organoids [3]; [7]): −1.188

Structure (SMILES): Cc1ccc([C@@H]2O[C@H](CO)[C@@H](O)[C@H](O)[C@H]2O)cc1Cc1ccc(-c2ccc(F)cc2)s1 [Canagliflozin]
- Dose.FC.LYZ.S (ISC-enriched organoids [1]; Dose 0.08 uM, ENR+CD, 6 days): 0.014 log 2 fold change
- Dose.FC.LYZ.S (ISC-enriched organoids [1]; Dose 0.40 uM, ENR+CD, 6 days): −0.032 log 2 fold change
- Dose.FC.LYZ.S (ISC-enriched organoids [1]; Dose 2.00 uM, ENR+CD, 6 days): 0.028 log 2 fold change
- Dose.FC.LYZ.S (ISC-enriched organoids [1]; Dose 10.00 uM, ENR+CD, 6 days): −0.033 log 2 fold change
- Dose.FC.LYZ.NS (ISC-enriched organoids [2]; Dose 0.08 uM, ENR+CD, 6 days): −0.027 log 2 fold change
- Z.LYZ.NS (ISC-enriched organoids [2]; [4]): −0.233
- Dose.FC.LYZ.NS (ISC-enriched organoids [2]; Dose 0.40 uM, ENR+CD, 6 days): −0.046 log 2 fold change
- Z.LYZ.NS (ISC-enriched organoids [2]; [5]): −0.398
- Dose.FC.LYZ.NS (ISC-enriched organoids [2]; Dose 2.00 uM, ENR+CD, 6 days): 0.025 log 2 fold change
- Z.LYZ.NS (ISC-enriched organoids [2]; [6]): 0.214
- Dose.FC.LYZ.NS (ISC-enriched organoids [2]; Dose 10.00 uM, ENR+CD, 6 days): −0.064 log 2 fold change
- Z.LYZ.NS (ISC-enriched organoids [2]; [7]): −0.556
- Dose.FC.CTG (ISC-enriched organoids [3]; Dose 0.08 uM, ENR+CD, 6 days): −0.240 log 2 fold change
- Z.CTG (ISC-enriched organoids [3]; [4]): −0.572
- Dose.FC.CTG (ISC-enriched organoids [3]; Dose 0.40 uM, ENR+CD, 6 days): −0.098 log 2 fold change
- Z.CTG (ISC-enriched organoids [3]; [5]): −0.235
- Dose.FC.CTG (ISC-enriched organoids [3]; Dose 2.00 uM, ENR+CD, 6 days): 0.042 log 2 fold change
- Z.CTG (ISC-enriched organoids [3]; [6]): 0.101
- Dose.FC.CTG (ISC-enriched organoids [3]; Dose 10.00 uM, ENR+CD, 6 days): −0.079 log 2 fold change
- Z.CTG (ISC-enriched organoids [3]; [7]): −0.188

Structure (SMILES): O=C(O)c1cc2cccc([N+](=O)[O-])c2[nH]1 [CRT0044876]
- Dose.FC.LYZ.S (ISC-enriched organoids [1]; Dose 0.08 uM, ENR+CD, 6 days): −0.002 log 2 fold change
- Dose.FC.LYZ.S (ISC-enriched organoids [1]; Dose 0.40 uM, ENR+CD, 6 days): 0.055 log 2 fold change
- Dose.FC.LYZ.S (ISC-enriched organoids [1]; Dose 2.00 uM, ENR+CD, 6 days): 0.014 log 2 fold change
- Dose.FC.LYZ.S (ISC-enriched organoids [1]; Dose 10.00 uM, ENR+CD, 6 days): −0.061 log 2 fold change
- Dose.FC.LYZ.NS (ISC-enriched organoids [2]; Dose 0.08 uM, ENR+CD, 6 days): 0.016 log 2 fold change
- Z.LYZ.NS (ISC-enriched organoids [2]; [4]): 0.135
- Dose.FC.LYZ.NS (ISC-enriched organoids [2]; Dose 0.40 uM, ENR+CD, 6 days): 0.034 log 2 fold change
- Z.LYZ.NS (ISC-enriched organoids [2]; [5]): 0.298
- Dose.FC.LYZ.NS (ISC-enriched organoids [2]; Dose 2.00 uM, ENR+CD, 6 days): 0.047 log 2 fold change
- Z.LYZ.NS (ISC-enriched organoids [2]; [6]): 0.408
- Dose.FC.LYZ.NS (ISC-enriched organoids [2]; Dose 10.00 uM, ENR+CD, 6 days): 0.032 log 2 fold change
- Z.LYZ.NS (ISC-enriched organoids [2]; [7]): 0.278
- Dose.FC.CTG (ISC-enriched organoids [3]; Dose 0.08 uM, ENR+CD, 6 days): −0.171 log 2 fold change
- Z.CTG (ISC-enriched organoids [3]; [4]): −0.410
- Dose.FC.CTG (ISC-enriched organoids [3]; Dose 0.40 uM, ENR+CD, 6 days): −0.040 log 2 fold change
- Z.CTG (ISC-enriched organoids [3]; [5]): −0.096
- Dose.FC.CTG (ISC-enriched organoids [3]; Dose 2.00 uM, ENR+CD, 6 days): −0.081 log 2 fold change
- Z.CTG (ISC-enriched organoids [3]; [6]): −0.192
- Dose.FC.CTG (ISC-enriched organoids [3]; Dose 10.00 uM, ENR+CD, 6 days): −0.099 log 2 fold change
- Z.CTG (ISC-enriched organoids [3]; [7]): −0.237

Structure (SMILES): Cc1cc(Nc2cc(CN3CCOCC3)c3nc(C)c(Cc4ccc(Cl)cc4F)n3n2)n[nH]1 [LY2784544]
- Dose.FC.LYZ.S (ISC-enriched organoids [1]; Dose 0.08 uM, primary screen): 0.123 log 2 fold change
- Dose.FC.LYZ.S (ISC-enriched organoids [1]; Dose 0.40 uM, primary screen): 0.077 log 2 fold change
- Dose.FC.LYZ.S (ISC-enriched organoids [1]; Dose 2.00 uM, primary screen): 0.114 log 2 fold change
- Dose.FC.LYZ.S (ISC-enriched organoids [1]; Dose 10.00 uM, primary screen): −0.367 log 2 fold change
- Z.LYZ.S (ISC-enriched organoids [1]; [8]): 0.794
- Z.LYZ.S (ISC-enriched organoids [1]; [9]): 0.498
- Z.LYZ.S (ISC-enriched organoids [1]; [10]): 0.737
- Z.LYZ.S (ISC-enriched organoids [1]; [11]): −2.373
- SSMD.LYZ.S (ISC-enriched organoids [1]; [8]): 0.911
- SSMD.LYZ.S (ISC-enriched organoids [1]; [9]): 0.595
- SSMD.LYZ.S (ISC-enriched organoids [1]; [10]): 0.492
- SSMD.LYZ.S (ISC-enriched organoids [1]; [11]): −2.074
- Dose.FC.LYZ.NS (ISC-enriched organoids [2]; Dose 0.08 uM, primary screen): 0.132 log 2 fold change
- Z.LYZ.NS (ISC-enriched organoids [2]; [12]): 1.152
- Dose.FC.LYZ.NS (ISC-enriched organoids [2]; Dose 0.40 uM, primary screen): 0.004 log 2 fold change
- Z.LYZ.NS (ISC-enriched organoids [2]; [13]): 0.033
- Dose.FC.LYZ.NS (ISC-enriched organoids [2]; Dose 2.00 uM, primary screen): 0.068 log 2 fold change
- Z.LYZ.NS (ISC-enriched organoids [2]; [14]): 0.591
- Dose.FC.LYZ.NS (ISC-enriched organoids [2]; Dose 10.00 uM, primary screen): −0.280 log 2 fold change
- Z.LYZ.NS (ISC-enriched organoids [2]; [15]): −2.439
- SSMD.LYZ.NS (ISC-enriched organoids [2]; [8]): 0.395
- SSMD.LYZ.NS (ISC-enriched organoids [2]; [9]): 0.037
- SSMD.LYZ.NS (ISC-enriched organoids [2]; [10]): 0.582
- SSMD.LYZ.NS (ISC-enriched organoids [2]; [11]): −2.015
- Dose.FC.CTG (ISC-enriched organoids [3]; Dose 0.08 uM, primary screen): 0.108 log 2 fold change
- Z.CTG (ISC-enriched organoids [3]; [12]): 0.259
- Dose.FC.CTG (ISC-enriched organoids [3]; Dose 0.40 uM, primary screen): 0.062 log 2 fold change
- Z.CTG (ISC-enriched organoids [3]; [13]): 0.148
- Dose.FC.CTG (ISC-enriched organoids [3]; Dose 2.00 uM, primary screen): 0.181 log 2 fold change
- Z.CTG (ISC-enriched organoids [3]; [14]): 0.433
- Dose.FC.CTG (ISC-enriched organoids [3]; Dose 10.00 uM, primary screen): −0.831 log 2 fold change
- Z.CTG (ISC-enriched organoids [3]; [15]): −1.984
- SSMD.CTG (ISC-enriched organoids [3]; [8]): 0.378
- SSMD.CTG (ISC-enriched organoids [3]; [9]): 0.135
- SSMD.CTG (ISC-enriched organoids [3]; [10]): 0.500
- SSMD.CTG (ISC-enriched organoids [3]; [11]): −1.283

Source: patent US20230398130A1, “METHODS AND COMPOSITIONS FOR DIFFERENTIATING STEM CELLS” (Massachusetts Institute of Technology, priority 2020, published 2023)
